This note sets out measurements from patent US9328112B2, “Tetracyclic CDK9 kinase inhibitors” (AbbVie Inc., priority 2014, dated 2016).

In experiment [1] the target is CDK9/Cyclin T1 (Homo sapiens (Human), UniProt P50750). Nature of the experiment: CDK9 enzyme assay (LANCE ULight TR-FRET kinase assay). In kind it is biochemical. The settings on record: 1000 μM ATP, 100 nM ULight MBP, kinase reaction 1 hour. As to the method:
CDK9 enzyme activities were measured using LANCE ULight TR-FRET kinase assay reagents (PerkinElmer, Waltham, Mass.). Compounds were diluted in 100% DMSO then diluted with 1:10 in serine/threonine kinase assay buffer containing 20 mM HEPES, 10 mM MgCl2, […], and 0.0075% Triton X-100. Equal volume of the compound dilutions was added to a final reaction mixture containing LANCE detection buffer (PerkinElmer CR97-100), 100 nM ULight MBP (PerkinElmer TRF0109M), 1000 μM ATP, and CDK9/Cyclin T1 (Carna Biosciences 04-110). The kinase reaction was carried out for 1 hour before addition of stopping buffer to a final of 20 mM EDTA and 0.5 nM of LANCE Ultra Europium anti-phospho-MBP antibody (PerkinElmer TRF0201M) in LANCE detection buffer. The reaction was incubated for 1 hour and the signal was read in Envision in TR-FRET mode (excitation at 320 nm and emission at 615/665 nm).
For orientation: TR-FRET usually uses a lanthanide donor and a delayed reading to cut background.

Experiment [2] concerns H929 cells. Nature of the experiment: Cell viability assay (Cell TiterGlo). In kind it is cell-based. The settings on record: Homo sapiens, NCI-H929, 24 hours at 37° C., Cell TiterGlo luminescence. As to the method: The cell viability assay was performed using H929 cells. Cells were seeded in 96-well plates at 10,000 cells/well and, after overnight incubation, treated with compounds in a dose response of 3-fold dilutions from 10 μM to 0.005 μM ([…], 0.1% final DMSO concentration). After 24 hours at 37° C., cell viability was measured using Cell TiterGlo reagent (Promega) with a luminescence reader.
On the technique in general: In ATP-based viability assays light output follows the ATP content of the culture.

pIC50: −log10 of the molar value.

Chain of CDK9/Cyclin T1 (P50750 whole entry): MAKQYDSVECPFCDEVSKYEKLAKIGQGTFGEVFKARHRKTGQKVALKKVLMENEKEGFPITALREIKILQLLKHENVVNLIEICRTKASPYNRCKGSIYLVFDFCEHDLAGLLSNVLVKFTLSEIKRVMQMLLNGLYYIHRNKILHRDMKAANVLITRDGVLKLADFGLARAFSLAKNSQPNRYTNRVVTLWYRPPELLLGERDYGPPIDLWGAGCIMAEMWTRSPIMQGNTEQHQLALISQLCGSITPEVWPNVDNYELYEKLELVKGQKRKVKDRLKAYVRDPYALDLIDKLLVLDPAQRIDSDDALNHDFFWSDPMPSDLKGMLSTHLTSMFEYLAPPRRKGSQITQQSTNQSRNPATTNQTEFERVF
Chain of CDK9/Cyclin T1 (O60563 whole entry partner): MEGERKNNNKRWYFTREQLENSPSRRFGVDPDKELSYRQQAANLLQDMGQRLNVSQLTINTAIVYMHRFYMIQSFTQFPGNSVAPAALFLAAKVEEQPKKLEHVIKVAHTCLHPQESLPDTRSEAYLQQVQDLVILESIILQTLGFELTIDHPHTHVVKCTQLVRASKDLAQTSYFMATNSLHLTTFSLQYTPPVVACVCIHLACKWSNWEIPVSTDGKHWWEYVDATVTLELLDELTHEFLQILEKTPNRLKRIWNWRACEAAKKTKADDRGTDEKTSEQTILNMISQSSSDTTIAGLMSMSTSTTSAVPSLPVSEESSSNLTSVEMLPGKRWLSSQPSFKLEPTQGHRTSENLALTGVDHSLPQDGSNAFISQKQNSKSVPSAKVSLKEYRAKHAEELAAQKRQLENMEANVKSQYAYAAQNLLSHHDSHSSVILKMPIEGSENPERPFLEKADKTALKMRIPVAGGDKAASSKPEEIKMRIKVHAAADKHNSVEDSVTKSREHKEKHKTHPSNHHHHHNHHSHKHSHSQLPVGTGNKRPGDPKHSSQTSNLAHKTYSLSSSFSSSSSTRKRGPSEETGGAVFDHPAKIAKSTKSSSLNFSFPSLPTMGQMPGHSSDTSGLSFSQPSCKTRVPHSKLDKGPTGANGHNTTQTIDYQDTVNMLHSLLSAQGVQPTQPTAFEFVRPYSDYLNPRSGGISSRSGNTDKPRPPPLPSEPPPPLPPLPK

A word on the pIC50: it is −log10 of the IC50, conventionally taken in molar units. Read a low pIC50 as a large IC50. `CN1Cc2c(C3=CCC(N4CCC[C@H]4C(=O)O)CC3)[nH]c3nccc(c23)-c2cc(F)ccc21` (stereo partly drawn) [Example 37, 1-[4-(10-fluoro-7-methyl-6,7-dihydro-4H-3,4,7-triazadibenzo[cd,f]azulen-5-yl)cyclohex-3-en-1-yl]-L-proline]: the pIC50 in experiment [1] is 6.80; in experiment [2], 6.54.

As to `CN1Cc2c(C3=CCC(N[C@@H](CO)C(=O)O)CC3)[nH]c3nccc(c23)-c2cc(F)ccc21` (stereo partly drawn) [Example 38, N-[4-(10-fluoro-7-methyl-6,7-dihydro-4H-3,4,7-triazadibenzo[cd,f]azulen-5-yl)cyclohex-3-en-1-yl]-L-serine], the negative-log IC50 (pIC50) in experiment [1] was 7.04; in experiment [2], 6.57.

On to `CCC[C@H](NC1CC=C(c2[nH]c3nccc4c3c2CN(C)c2ccc(F)cc2-4)CC1)C(=O)O` (stereo partly drawn) [Example 39, N-[4-(10-fluoro-7-methyl-6,7-dihydro-4H-3,4,7-triazadibenzo[cd,f]azulen-5-yl)cyclohex-3-en-1-yl]-L-norvaline], for which the pIC50 in experiment [1] was 6.89; in experiment [2], 7.00.

For the compound `CN1Cc2c(C3=CCC(N[C@@H](Cc4ccc(O)cc4)C(=O)O)CC3)[nH]c3nccc(c23)-c2cc(F)ccc21` (stereo partly drawn) [Example 40, N-[4-(10-fluoro-7-methyl-6,7-dihydro-4H-3,4,7-triazadibenzo[cd,f]azulen-5-yl)cyclohex-3-en-1-yl]-L-tyrosine], the values for the pIC50 in experiment [1] and in experiment [2] were 7.09 and 6.49, respectively.

As to `CN1Cc2c(C3=CCC(C(=O)O)CC3)[nH]c3nccc(c23)-c2cc(F)ccc21` (centres unmarked) [Example 41, 4-(10-fluoro-7-methyl-6,7-dihydro-4H-3,4,7-triazadibenzo[cd,f]azulen-5-yl)cyclohex-3-ene-1-carboxylic acid], the values for the pIC50 in experiment [1] and in experiment [2] were 6.82 and 5.96, respectively.

On to `CN1Cc2c(C3=CCN(CC(=O)N4CC[C@H](O)C4)CC3)[nH]c3nccc(c23)-c2cc(F)ccc21` [Example 42, 2-[4-(10-fluoro-7-methyl-6,7-dihydro-4H-3,4,7-triazadibenzo[cd,f]azulen-5-yl)-3,6-dihydropyridin-1(2H)-yl]-1-[(3S)-3-hydroxypyrrolidin-1-yl]ethanone], for which the pIC50 in experiment [1] was 7.32; in experiment [2], 7.10.

In the case of `CN1Cc2c(-c3ccc(S(C)(=O)=O)cc3)[nH]c3nccc(c23)-c2cc(F)ccc21` [Example 43, 10-fluoro-7-methyl-5-[4-(methylsulfonyl)phenyl]-6,7-dihydro-4H-3,4,7-triazadibenzo[cd,f]azulene], the negative logarithm of the IC50 (pIC50) in experiment [1] is 7.18; in experiment [2], 6.64.

`CN1Cc2c(-c3ccncc3)[nH]c3nccc(c23)-c2cc(F)ccc21` [Example 44, 10-fluoro-7-methyl-5-(pyridin-4-yl)-6,7-dihydro-4H-3,4,7-triazadibenzo[cd,f]azulene]: the pIC50 in experiment [1] is 6.89; in experiment [2] it was 6.31.

In the case of `CN1Cc2c(-c3ccc(S(C)(=O)=O)nc3)[nH]c3nccc(c23)-c2cc(F)ccc21` [Example 45, 10-fluoro-7-methyl-5-[6-(methylsulfonyl)pyridin-3-yl]-6,7-dihydro-4H-3,4,7-triazadibenzo[cd,f]azulene], the pIC50 in experiment [1] was 6.96; in experiment [2], 6.08.

`CN1Cc2c(-c3cnc(N)nc3)[nH]c3nccc(c23)-c2cc(F)ccc21` [Example 46, 5-(10-fluoro-7-methyl-6,7-dihydro-4H-3,4,7-triazadibenzo[cd,f]azulen-5-yl)pyrimidin-2-amine]: the values for the pIC50 in experiment [1] and in experiment [2] were 5.48 and below 5.00, respectively.

As for `CN1Cc2c(-c3ccc(C(=O)O)cc3)[nH]c3nccc(c23)-c2cc(F)ccc21` [Example 47, 4-(10-fluoro-7-methyl-6,7-dihydro-4H-3,4,7-triazadibenzo[cd,f]azulen-5-yl)benzoic acid], the pIC50 in experiment [1] is 6.82; in experiment [2], 5.01.

Take `CN1Cc2c(C3=CCNCC3)[nH]c3ncc(F)c(c23)-c2cc(F)ccc21` [Example 48, 1,10-difluoro-7-methyl-5-(1,2,3,6-tetrahydropyridin-4-yl)-6,7-dihydro-4H-3,4,7-triazadibenzo[cd,f]azulene]: the pIC50 was 7.57 in experiment [1] and 7.70 in experiment [2].

In the case of `CN1Cc2c(C3=CCN(C(=O)OC(C)(C)C)CC3)[nH]c3ncc(F)c(c23)-c2cc(F)ccc21` [Example 49, tert-butyl 4-(1,10-difluoro-7-methyl-6,7-dihydro-4H-3,4,7-triazadibenzo[cd,f]azulen-5-yl)-3,6-dihydropyridine-1(2H)-carboxylate], the pIC50 in experiment [1] and in experiment [2] was 6.11 throughout.

Regarding `CN(C)C(=O)C1CC=C(c2[nH]c3nccc4c3c2CN(C)c2ccc(F)cc2-4)CC1` (centres unmarked) [Example 50, 4-(10-fluoro-7-methyl-6,7-dihydro-4H-3,4,7-triazadibenzo[cd,f]azulen-5-yl)-N,N-dimethylcyclohex-3-ene-1-carboxamide], the figures for the pIC50 in experiment [1] and in experiment [2] were 6.92 and 6.02, respectively.

For the compound `CN1Cc2c(C3=CCC(C(=O)N4CC(O)C4)CC3)[nH]c3nccc(c23)-c2cc(F)ccc21` (centres unmarked) [Example 51, [4-(10-fluoro-7-methyl-6,7-dihydro-4H-3,4,7-triazadibenzo[cd,f]azulen-5-yl)cyclohex-3-en-1-yl](3-hydroxyazetidin-1-yl)methanone], the pIC50 in experiment [1] is 6.96; in experiment [2], 6.33.

For `CNC(=O)C1CC=C(c2[nH]c3nccc4c3c2CN(C)c2ccc(F)cc2-4)CC1` (centres unmarked) [Example 52, 4-(10-fluoro-7-methyl-6,7-dihydro-4H-3,4,7-triazadibenzo[cd,f]azulen-5-yl)-N-methylcyclohex-3-ene-1-carboxamide], the pIC50 in experiment [1] is 7.20; in experiment [2], 6.82.

For the compound `CN1Cc2c(C3=CCN(CC(=O)N(CCO)CCO)CC3)[nH]c3nccc(c23)-c2cc(F)ccc21` [Example 53, 2-[4-(10-fluoro-7-methyl-6,7-dihydro-4H-3,4,7-triazadibenzo[cd,f]azulen-5-yl)-3,6-dihydropyridin-1(2H)-yl]-N,N-bis(2-hydroxyethyl)acetamide], the pIC50 is 7.24 in experiment [1] and 7.33 in experiment [2].

As for `CN1Cc2c(C3=CCN(CC(=O)N4CC(F)(F)C4)CC3)[nH]c3nccc(c23)-c2cc(F)ccc21` [Example 54, 1-(3,3-difluoroazetidin-1-yl)-2-[4-(10-fluoro-7-methyl-6,7-dihydro-4H-3,4,7-triazadibenzo[cd,f]azulen-5-yl)-3,6-dihydropyridin-1(2H)-yl]ethanone], the negative-log IC50 (pIC50) in experiment [1] was 7.20; in experiment [2] it was 7.04.

`CN(C)C(=O)CN1[C@H]2CC[C@@H]1C=C(c1[nH]c3nccc4c3c1CN(C)c1ccc(F)cc1-4)C2` [Example 55, 2-[(1R,5S)-3-(10-fluoro-7-methyl-6,7-dihydro-4H-3,4,7-triazadibenzo[cd,f]azulen-5-yl)-8-azabicyclo[3.2.1]oct-2-en-8-yl]-N,N-dimethylacetamide]: the pIC50 was 6.80 in experiment [1] and 6.82 in experiment [2].

As for `CN1Cc2c(C3=C[C@H]4CC[C@@H](C3)N4S(C)(=O)=O)[nH]c3nccc(c23)-c2cc(F)ccc21` [Example 56, 10-fluoro-7-methyl-5-[(1R,5S)-8-(methylsulfonyl)-8-azabicyclo[3.2.1]oct-2-en-3-yl]-6,7-dihydro-4H-3,4,7-triazadibenzo[cd,f]azulene], the negative logarithm of the IC50 (pIC50) is 7.02 in experiment [1] and 6.17 in experiment [2].

In the case of `CNC(=O)N1[C@H]2CC[C@@H]1C=C(c1[nH]c3nccc4c3c1CN(C)c1ccc(F)cc1-4)C2` [Example 57, (1R,5S)-3-(10-fluoro-7-methyl-6,7-dihydro-4H-3,4,7-triazadibenzo[cd,f]azulen-5-yl)-N-methyl-8-azabicyclo[3.2.1]oct-2-ene-8-carboxamide], the negative-log IC50 (pIC50) in experiment [1] is 6.70; in experiment [2], 5.66.

Consider `CN1Cc2c(C3=C[C@H]4CC[C@@H](C3)N4CC(=O)O)[nH]c3nccc(c23)-c2cc(F)ccc21` [Example 58, [(1R,5S)-3-(10-fluoro-7-methyl-6,7-dihydro-4H-3,4,7-triazadibenzo[cd,f]azulen-5-yl)-8-azabicyclo[3.2.1]oct-2-en-8-yl]acetic acid], for which the pIC50 is 6.77 in experiment [1] and 5.85 in experiment [2].

In the case of `CN1Cc2c(C3=CC4CNCC4C3)[nH]c3nccc(c23)-c2cc(F)ccc21` (centres unmarked) [Example 59, 10-fluoro-5-(1,2,3,3a,4,6a-hexahydrocyclopenta[c]pyrrol-5-yl)-7-methyl-6,7-dihydro-4H-3,4,7-triazadibenzo[cd,f]azulene], the pIC50 in experiment [1] is 7.06; in experiment [2], 6.72.

With `CN1Cc2c(-c3cccnc3)[nH]c3nccc(c23)-c2cc(F)ccc21` [Example 60, 10-fluoro-7-methyl-5-(pyridin-3-yl)-6,7-dihydro-4H-3,4,7-triazadibenzo[cd,f]azulene], the pIC50 in experiment [1] is 7.12; in experiment [2] it was 6.49.

On to `CCOC(=O)C1CC=C(c2[nH]c3nccc4c3c2CN(C)c2ccc(F)cc2-4)CC1` (centres unmarked) [Example 61, ethyl 4-(10-fluoro-7-methyl-6,7-dihydro-4H-3,4,7-triazadibenzo[cd,f]azulen-5-yl)cyclohex-3-ene-1-carboxylate], for which the pIC50 in experiment [1] was 6.40; in experiment [2] it was 5.92.
